The source of these data is patent US20050143382A1 (4SC AG, priority 2003, published 2005).

Common to all, as to type: biochemical
Common to all, as to conditions: recombinant human kinase, 1 μM ATP

The target in one assay is T1, Aurora B kinase (Homo sapiens, UniProt Q96GD4).
T1 construct: made in house; host or cells: Sf9 insect cells (baculovirus)
Kind of assay: 33PanQinase protein kinase activity assay, Aurora B. How it is done:
(§1) The effect of the farazanopyrazine derivatives was tested on recombinant, human protein kinases. All protein kinases were expressed in Sf9 insect cells as human recombinant GST-fusion proteins or as His-tagged proteins by means of the baculovirus expression system. Protein kinases were purified by affinity chromatography using either GSH-agarose or Ni-NTH-agarose. The purity and identity of each was checked by SDS-PAGE/silver staining and by western blot analysis with specific antibodies.
(§2) A proprietary protein kinase assay (^33 PanQinase® Activity Assay) was used for measuring the kinase activity. All kinase assays were performed in 96-well FlashPlates™ in a 50 μl reaction volume. The assay for all enzymes contained 60 mM HEPES-NaOH, pH 7.5, 3 mM MgCl2, 3 mM MnCl2, 3 μM Na-orthovanadate, 1.2 mM DTT, 50 μg/ml PEG20000 and 1 μM [γ-^33P]-ATP (approx. 5×10^5 cpm per well).
(§3) The reaction cocktails were incubated at 30° C. for 80 minutes. The reaction was stopped with 50 μl of 2% (v/v) H3PO4, plates were aspirated and washed two times with 200 μl of 0.9% (w/v) NaCl. Incorporation of 33Pi was determined with a microplate scintillation counter. All assays were performed with a BeckmanCoulter/Sagian robotic system.

The next assay has as its target T2, VEGF-R2 (Homo sapiens, UniProt P35968).
T2 construct: made in house; host or cells: Sf9 insect cells (baculovirus)
Put plainly: 33PanQinase protein kinase activity assay, VEGF-R2. How it is done:
as §1, §2, §3

Another assay deals with T3, SRC kinase (Homo sapiens, UniProt P12931).
T3 construct: made in house; host or cells: Sf9 insect cells (baculovirus)
T3 sequence (P12931 whole entry): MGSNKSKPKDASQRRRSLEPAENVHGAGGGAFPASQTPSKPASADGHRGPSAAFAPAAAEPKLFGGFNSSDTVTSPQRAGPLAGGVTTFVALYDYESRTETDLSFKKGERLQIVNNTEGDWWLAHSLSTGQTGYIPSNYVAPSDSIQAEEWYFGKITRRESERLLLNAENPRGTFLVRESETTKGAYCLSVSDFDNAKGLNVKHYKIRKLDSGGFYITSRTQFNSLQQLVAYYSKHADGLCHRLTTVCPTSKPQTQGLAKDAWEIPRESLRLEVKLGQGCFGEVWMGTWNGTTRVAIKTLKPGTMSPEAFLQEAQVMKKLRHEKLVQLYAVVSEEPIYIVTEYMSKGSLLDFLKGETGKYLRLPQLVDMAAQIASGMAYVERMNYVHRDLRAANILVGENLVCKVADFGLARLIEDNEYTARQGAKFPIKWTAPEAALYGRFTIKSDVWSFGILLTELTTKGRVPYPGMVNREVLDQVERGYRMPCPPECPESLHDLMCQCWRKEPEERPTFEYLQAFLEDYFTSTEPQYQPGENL
Put plainly: 33PanQinase protein kinase activity assay, SRC. On the procedure: as §1, §2, §3

The next assay addresses T4, IGF-1 R (Homo sapiens, UniProt P08069).
T4 construct: made in house; host or cells: Sf9 insect cells (baculovirus)
Put plainly: 33PanQinase protein kinase activity assay, IGF-1 R. On the procedure:
as §1, §2, §3

The IC50 is the concentration needed to halve the response being measured.

Each structure is given as a SMILES string.

T1 sequence (Q96GD4 whole entry): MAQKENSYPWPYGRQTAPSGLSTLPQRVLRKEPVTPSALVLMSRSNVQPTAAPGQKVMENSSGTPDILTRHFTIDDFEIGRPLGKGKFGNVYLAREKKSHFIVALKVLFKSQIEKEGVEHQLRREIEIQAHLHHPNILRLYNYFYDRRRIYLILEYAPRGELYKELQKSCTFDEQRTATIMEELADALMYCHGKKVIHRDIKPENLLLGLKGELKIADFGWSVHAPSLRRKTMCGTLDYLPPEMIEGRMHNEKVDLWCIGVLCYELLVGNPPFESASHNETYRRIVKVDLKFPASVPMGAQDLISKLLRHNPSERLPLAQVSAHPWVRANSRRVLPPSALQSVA
T2 sequence (P35968 20-1356): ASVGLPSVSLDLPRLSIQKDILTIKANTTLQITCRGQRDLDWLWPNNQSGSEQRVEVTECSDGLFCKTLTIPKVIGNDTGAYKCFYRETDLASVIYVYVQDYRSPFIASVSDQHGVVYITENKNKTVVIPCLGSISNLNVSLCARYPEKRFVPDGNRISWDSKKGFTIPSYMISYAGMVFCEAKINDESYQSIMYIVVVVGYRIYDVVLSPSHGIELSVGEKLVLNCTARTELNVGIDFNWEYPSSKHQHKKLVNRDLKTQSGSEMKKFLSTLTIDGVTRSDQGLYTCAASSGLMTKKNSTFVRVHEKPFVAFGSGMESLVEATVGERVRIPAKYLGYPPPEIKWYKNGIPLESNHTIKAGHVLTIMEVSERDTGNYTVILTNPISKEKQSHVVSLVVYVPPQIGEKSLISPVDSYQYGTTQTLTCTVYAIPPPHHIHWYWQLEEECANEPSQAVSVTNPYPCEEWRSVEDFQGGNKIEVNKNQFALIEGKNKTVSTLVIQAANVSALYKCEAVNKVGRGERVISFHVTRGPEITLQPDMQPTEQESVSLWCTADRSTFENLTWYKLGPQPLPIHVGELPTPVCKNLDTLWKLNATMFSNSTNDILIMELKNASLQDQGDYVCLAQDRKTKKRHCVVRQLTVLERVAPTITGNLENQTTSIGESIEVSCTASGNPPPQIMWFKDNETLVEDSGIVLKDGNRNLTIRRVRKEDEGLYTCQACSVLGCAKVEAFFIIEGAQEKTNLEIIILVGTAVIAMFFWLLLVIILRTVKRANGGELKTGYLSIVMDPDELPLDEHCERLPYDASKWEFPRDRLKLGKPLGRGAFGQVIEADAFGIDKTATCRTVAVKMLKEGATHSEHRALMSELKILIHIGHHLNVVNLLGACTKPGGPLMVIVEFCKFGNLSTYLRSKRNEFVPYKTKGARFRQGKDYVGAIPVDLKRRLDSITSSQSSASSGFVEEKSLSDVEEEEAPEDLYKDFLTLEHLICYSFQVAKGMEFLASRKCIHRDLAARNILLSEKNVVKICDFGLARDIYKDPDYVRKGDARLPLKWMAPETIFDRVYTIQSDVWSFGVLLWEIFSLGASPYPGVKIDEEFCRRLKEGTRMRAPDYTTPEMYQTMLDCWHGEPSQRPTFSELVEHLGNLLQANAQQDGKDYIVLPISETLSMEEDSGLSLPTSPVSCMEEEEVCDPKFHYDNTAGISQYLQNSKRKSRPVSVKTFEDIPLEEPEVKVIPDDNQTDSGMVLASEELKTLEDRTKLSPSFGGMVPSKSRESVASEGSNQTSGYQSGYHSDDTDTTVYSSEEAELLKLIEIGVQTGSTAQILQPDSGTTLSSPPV
T4 sequence (P08069 31-1367): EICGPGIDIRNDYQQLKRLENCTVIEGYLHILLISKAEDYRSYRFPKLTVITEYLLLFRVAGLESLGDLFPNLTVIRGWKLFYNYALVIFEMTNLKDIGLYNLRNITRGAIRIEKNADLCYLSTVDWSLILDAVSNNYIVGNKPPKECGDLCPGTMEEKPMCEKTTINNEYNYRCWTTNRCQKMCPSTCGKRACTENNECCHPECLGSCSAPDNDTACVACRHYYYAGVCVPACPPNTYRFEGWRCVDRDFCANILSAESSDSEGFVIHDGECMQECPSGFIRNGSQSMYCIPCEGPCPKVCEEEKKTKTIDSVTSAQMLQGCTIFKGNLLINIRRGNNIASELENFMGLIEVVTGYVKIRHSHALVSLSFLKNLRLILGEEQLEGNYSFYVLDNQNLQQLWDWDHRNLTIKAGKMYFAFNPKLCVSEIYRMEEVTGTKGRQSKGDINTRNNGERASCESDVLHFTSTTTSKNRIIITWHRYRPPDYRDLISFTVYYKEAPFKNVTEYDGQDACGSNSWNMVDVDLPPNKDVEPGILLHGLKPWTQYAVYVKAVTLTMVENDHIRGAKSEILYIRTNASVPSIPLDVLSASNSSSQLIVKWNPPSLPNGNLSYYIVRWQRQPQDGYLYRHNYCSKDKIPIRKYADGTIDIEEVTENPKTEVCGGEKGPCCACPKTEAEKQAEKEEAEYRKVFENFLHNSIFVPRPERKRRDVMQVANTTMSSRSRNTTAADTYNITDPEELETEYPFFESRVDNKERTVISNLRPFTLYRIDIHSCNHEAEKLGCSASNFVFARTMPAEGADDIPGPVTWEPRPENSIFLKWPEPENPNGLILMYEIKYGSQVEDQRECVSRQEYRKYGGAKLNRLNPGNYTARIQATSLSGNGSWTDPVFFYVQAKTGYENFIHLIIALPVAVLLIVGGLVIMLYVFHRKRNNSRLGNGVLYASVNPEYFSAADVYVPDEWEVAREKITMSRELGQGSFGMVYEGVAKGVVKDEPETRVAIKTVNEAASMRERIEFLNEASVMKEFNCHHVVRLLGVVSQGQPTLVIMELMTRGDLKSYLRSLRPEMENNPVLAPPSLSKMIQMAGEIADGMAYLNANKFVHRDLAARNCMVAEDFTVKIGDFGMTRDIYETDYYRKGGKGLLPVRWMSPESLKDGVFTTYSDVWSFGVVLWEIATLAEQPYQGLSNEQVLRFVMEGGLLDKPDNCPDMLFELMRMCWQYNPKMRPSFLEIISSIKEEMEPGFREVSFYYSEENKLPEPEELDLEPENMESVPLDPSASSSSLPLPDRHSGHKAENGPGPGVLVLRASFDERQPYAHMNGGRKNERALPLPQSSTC

As for `COc1cc(C=NNc2nc3nonc3nc2Nc2ccccc2F)cc([N+](=O)[O-])c1O` [Example 7], the IC50 at Aurora B kinase was under 10000 nM; on VEGF-R2 it was under 2000 nM; at SRC kinase it was under 1000 nM.
`O=C(O)c1cc(-c2ccc(C=NNc3nc4nonc4nc3Nc3ccccc3F)o2)ccc1O` [Example 23]: the IC50 on Aurora B kinase is under 10000 nM; on IGF-1 R it was under 1000 nM; at VEGF-R2, under 2000 nM; at SRC kinase, under 1000 nM.
`COc1ccccc1Nc1nc2nonc2nc1NN=Cc1cc(I)cc(I)c1O` [Example 47]: the IC50 at Aurora B kinase is under 10000 nM.
On to `O=C(O)c1cc(-c2ccc(C=NNc3nc4nonc4nc3Nc3ccc(Br)cc3)o2)ccc1Cl` [Example 52], for which the IC50 is under 10000 nM on Aurora B kinase, under 1000 nM at IGF-1 R, under 2000 nM on VEGF-R2 and under 1000 nM on SRC kinase.
As for `Oc1ccc(C=NNc2nc3nonc3nc2Nc2ccccc2)c(O)c1` [Example 81], the half-inhibitory concentration (IC50) at Aurora B kinase is under 10000 nM.
`O=C(O)c1cccc(-c2ccc(C=NNc3nc4nonc4nc3Nc3ccccc3)o2)c1` [Example 89]: the IC50 at Aurora B kinase is under 10000 nM.
For the molecule `O=C1Nc2ccccc2C1=NNc1nc2nonc2nc1Nc1ccccc1` [Example 95, 3-[(6-Phenylamino-[1,2,5]oxadiazolo [3,4-b]pyrazin-5-yl)-hydrazono]-1,3-dihydro-indol-2-one], the figures for the concentration for half-maximal inhibition (IC50) on Aurora B kinase and on IGF-1 R were under 10000 nM and under 1000 nM, respectively.
For the molecule `O=C(O)c1cccc(-c2ccc(C=NNc3nc4nonc4nc3NCc3ccccc3)o2)c1` [Example 111], the IC50 at Aurora B kinase was under 10000 nM.
The same measure, in the same setting: for `O=C(O)c1ccc(-c2ccc(C=NNc3nc4nonc4nc3NCc3ccccc3)o2)cc1` [Example 117] the value was under 10000 nM; for `Oc1ccc(C=NNc2nc3nonc3nc2Nc2ccc(F)cc2)c(O)c1` [Example 126], under 10000 nM.
On to `Oc1ccc(C=NNc2nc3nonc3nc2Nc2cccc(Cl)c2)c(O)c1` [Example 147], for which the half-maximal inhibitory concentration (IC50) at Aurora B kinase was under 10000 nM.
In the case of `O=C(O)c1cccc(-c2ccc(C=NNc3nc4nonc4nc3Nc3cccc(Cl)c3)o2)c1` [Example 154], the IC50 was under 10000 nM at Aurora B kinase, under 1000 nM at IGF-1 R, under 2000 nM on VEGF-R2 and under 1000 nM on SRC kinase.
As for `Oc1ccc(C=NNc2nc3nonc3nc2Nc2ccc(F)c(Cl)c2)c(O)c1` [Example 165], the IC50 at Aurora B kinase was under 10000 nM; on VEGF-R2, under 2000 nM.
On to `O=C(O)c1cccc(-c2ccc(C=NNc3nc4nonc4nc3Nc3ccc(F)c(Cl)c3)o2)c1` [Example 173], for which the figures for the IC50 at Aurora B kinase, on IGF-1 R and at SRC kinase were under 10000 nM, under 1000 nM and under 1000 nM, respectively.
With `O=C(O)c1cc(-c2ccc(C=NNc3nc4nonc4nc3Nc3ccc(F)c(Cl)c3)o2)ccc1Cl` [Example 176], the 50% inhibitory concentration (IC50) at Aurora B kinase was under 10000 nM; at IGF-1 R, under 1000 nM; on VEGF-R2 it was under 2000 nM; on SRC kinase, under 1000 nM.
With `O=S(=O)(O)c1ccc(C=NNc2nc3nonc3nc2Nc2ccc(F)c(Cl)c2)o1` [Example 181], at Aurora B kinase, the IC50 was under 10000 nM.
Still for that read-out and setting: for `Oc1ccc(C=NNc2nc3nonc3nc2Nc2ccc(Cl)c(Cl)c2)c(O)c1` [Example 189] the value was under 10000 nM.
`Clc1ccc(Nc2nc3nonc3nc2NN=Cc2cc3ccccc3o2)cc1Cl` [Example 193, [6-(N′-Benzofuran-2-ylmethylene-hydrazino)-[1,2,5]oxadiazolo[3,4-b]pyrazin-5-yl]-(3,4-dichloro-phenyl)-amine]: the figures for the half-maximal inhibitory concentration (IC50) at IGF-1 R, on VEGF-R2 and on SRC kinase were under 1000 nM, under 2000 nM and under 1000 nM, respectively.
With `O=C(O)c1cccc(-c2ccc(C=NNc3nc4nonc4nc3Nc3ccc(Cl)c(Cl)c3)o2)c1` [Example 194], the IC50 on Aurora B kinase was under 10000 nM; at IGF-1 R, under 1000 nM; at VEGF-R2 it was under 2000 nM; at SRC kinase, under 1000 nM.
With `O=C(O)c1cc(-c2ccc(C=NNc3nc4nonc4nc3Nc3ccc(Cl)c(Cl)c3)o2)ccc1Cl` [Example 196], the IC50 at Aurora B kinase is under 10000 nM; on IGF-1 R it was under 1000 nM; at VEGF-R2 it was under 2000 nM; on SRC kinase, under 1000 nM.
With `NC(=O)c1cccc(-c2ccc(C=NNc3nc4nonc4nc3Nc3ccc(Cl)c(Cl)c3)o2)c1` [Example 198], the 50% inhibitory concentration (IC50) on IGF-1 R was under 1000 nM; at VEGF-R2 it was under 2000 nM; on SRC kinase, under 1000 nM.
As for `O=C(O)c1ccc(-c2ccc(C=NNc3nc4nonc4nc3Nc3ccc(Cl)c(Cl)c3)o2)cc1` [Example 199], the half-inhibitory concentration (IC50) at Aurora B kinase is under 10000 nM; on IGF-1 R, under 1000 nM; at VEGF-R2, under 2000 nM; at SRC kinase, under 1000 nM.
With `Clc1ccc(-c2ccc(C=NNc3nc4nonc4nc3Nc3ccc(Cl)c(Cl)c3)o2)cc1` [Example 200, (6-{N-[5-(4-Chloro-phenyl)-furan-2-ylmethylene]-hydrazino}-[1,2,5]-oxadiazolo[3,4-b]pyrazin-5-yl)-(3,4-dichloro-phenyl)-amine], the IC50 is under 1000 nM on IGF-1 R, under 2000 nM on VEGF-R2 and under 1000 nM at SRC kinase.
For the molecule `O=C1Nc2ccccc2C1=NNc1nc2nonc2nc1Nc1ccc(Cl)c(Cl)c1` [Example 201, 3-{[6-(3,4-Dichloro-phenylamino)-[1,2,5]oxadiazolo [3,4-b]pyrazin-5-yl]-hydrazono}-1,3-dihydro-indol-2-one], the IC50 at IGF-1 R is under 1000 nM; on VEGF-R2 it was under 2000 nM; on SRC kinase, under 1000 nM.
